Experimental findings from patent US12139477B2, “Compounds, salts thereof and methods for treatment of diseases” (ACADIA PHARMACEUTICALS INC., priority 2017, dated 2024) are described below.

Format in all cases: cell-based
In data set [1] the target is T1, 5HT2A (Homo sapiens, UniProt P28223). Nature of the data set: Beta-arrestin recruitment assay (Tango technology, antagonist mode). More on the design: engineered protease cleavage site followed by tethered transcription factor (C). The note with it: read-out: 5HT2A (pIC50) Beta-arrestin (converted). The source says: Beta-Arrestin Recruitment Assay:
Detecting GPCR Signaling Using the Tango Technology
GPCR signaling through beta-arrestin was detected by the Tango Technology at Thermofisher. This technology is based upon the interaction of intracellular beta-arrestin proteins and the target receptor. Upon ligand binding to the target receptor, the protease tagged arrestin is stimulated and recruited to the engineered protease site on the C-terminus of the GPCR, which triggers release of the tethered transcription factor. The free transcription factor then enters the nucleus and stimulates the beta-lactamase (bla) activity.
Test compounds are received at 1000× (or greater) of the desired starting concentration in 100% DMSO. The 1000× test compounds are serially diluted (10 point […] increments) in 100% DMSO.
Antagonist Assay Protocol:
An Agonist assay screen (see above) is run to obtain the EC80 concentration of the known activator to add in step 3.
1. 32 μL of cells diluted in Assay Media to appropriate cell density are added to the assay plate. If needed, cells are incubated at 37° C./5% CO2 for 6 or 16-24 hours (depending upon cell line specifics) before compound is added.
2. 40 nL of 1000× compound or known antagonist titration plus 4 μL of Assay Media is added to the cells in the assay plate and incubated for 30 minutes at 37° C./5% CO2 in a humidified incubator.
3. 4 μL of the 10×EC80 concentration of agonist, as determined in an Agonist assay, is added to all wells containing test compound and known inhibitor to bring the final assay volume to 40 μL.
4. 4 μL of Assay Media is added to remaining control wells to bring the volume up to 40 μL.
5. The assay plate is incubated for 5 or 16 hours (depending upon cell line specifics) at 37° C./5% CO2 in a humidified incubator.
6. 8 μL of the Substrate Loading Solution is added to the assay plate.
7. The assay plate is incubated for 2 hours at room temperature, in the dark.
8. The assay plate is read on a fluorescence plate reader (Tecan Safire2) and the data is analyzed.
SelectScreen Cell-Based GPCR Profiling Service uses XLfit from IDBS. The dose response curve is curve fit to model number 205 (sigmoidal dose-response model). Custom logic was built in-house for the data analysis tool to address the different compound characteristics that can be observed with functional assays. Using this logic the relative EC50/IC50 value for each given compound is provided.
(In general: Arrestin recruitment assays detect the binding of arrestin to an activated receptor.)

For the next data set, the target named is T2, hERG channel (Homo sapiens, UniProt Q12809).
T2 construct: host or cells: CHO cells, stably transfected
T2 sequence (Q12809 whole entry): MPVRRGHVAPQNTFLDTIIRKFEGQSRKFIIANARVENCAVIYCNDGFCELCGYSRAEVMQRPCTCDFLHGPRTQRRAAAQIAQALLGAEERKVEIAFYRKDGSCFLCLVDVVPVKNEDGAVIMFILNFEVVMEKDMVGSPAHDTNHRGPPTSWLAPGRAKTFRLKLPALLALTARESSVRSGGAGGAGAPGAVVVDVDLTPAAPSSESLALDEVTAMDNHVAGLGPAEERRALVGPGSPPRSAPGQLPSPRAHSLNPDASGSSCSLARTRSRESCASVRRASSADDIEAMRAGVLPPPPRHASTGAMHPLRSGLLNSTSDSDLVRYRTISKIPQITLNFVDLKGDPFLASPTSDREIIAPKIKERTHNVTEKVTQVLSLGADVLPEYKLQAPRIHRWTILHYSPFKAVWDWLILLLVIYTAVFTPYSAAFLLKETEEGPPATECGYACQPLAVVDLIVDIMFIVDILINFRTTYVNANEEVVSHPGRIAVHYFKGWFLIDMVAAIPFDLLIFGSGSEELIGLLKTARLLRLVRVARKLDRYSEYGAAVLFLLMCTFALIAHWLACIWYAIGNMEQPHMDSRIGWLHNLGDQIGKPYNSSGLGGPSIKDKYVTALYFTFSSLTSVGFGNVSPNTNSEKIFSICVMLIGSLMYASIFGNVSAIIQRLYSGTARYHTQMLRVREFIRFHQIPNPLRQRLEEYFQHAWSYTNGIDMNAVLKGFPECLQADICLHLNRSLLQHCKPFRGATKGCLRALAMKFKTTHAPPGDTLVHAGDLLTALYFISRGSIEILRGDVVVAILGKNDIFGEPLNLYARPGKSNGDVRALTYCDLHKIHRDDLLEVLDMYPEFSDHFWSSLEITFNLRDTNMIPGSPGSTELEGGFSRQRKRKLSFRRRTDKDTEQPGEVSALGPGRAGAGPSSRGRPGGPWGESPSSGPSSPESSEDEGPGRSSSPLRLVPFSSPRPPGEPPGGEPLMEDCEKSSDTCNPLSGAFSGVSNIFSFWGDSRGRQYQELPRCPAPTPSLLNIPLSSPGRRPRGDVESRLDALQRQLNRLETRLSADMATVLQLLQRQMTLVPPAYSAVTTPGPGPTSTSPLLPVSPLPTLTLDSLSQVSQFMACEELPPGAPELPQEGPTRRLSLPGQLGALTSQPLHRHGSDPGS
The experiment in a line: hERG assay, whole cell recordings in CHO cells (AVIVA). The note with it: CHO cells stably expressing hERG, pH 7.4. As to the method:
The most common mechanism for these adverse events is the inhibition of one or more cardiac potassium channels, in particular hERG. This current is important for cardiac myocyte repolarization and is a common target for drugs that prolong the QT interval. Test articles in this study were therefore characterized to determine their ability to inhibit the hERG channel. Ion channel activity was measured at AVIVA Biosciences Corporation (San Diego, CA), using a stably transfected Chinese Hamster Ovary (CHO) cell line expressing the hERG mRNA.
Cells: AVIVA's CHO cell line, which stably expresses hERG channels, was used for the study. Cells were cultured in DMEM/F12 containing 10% FBS, 1% penicillin/streptomycin and 500 μg/ml G418. Before testing, cells were harvested using Accumax (Innovative Cell Technologies).
Solutions: For electrophysiological recordings, the following solutions were used: External Solution: 2 mM CaCl2); 2 mM MgCl2; 4 mM KCl; 150 mM NaCl; 10 mM Glucose; 10 mM HEPES; 305-315 mOsm; pH 7.4 (adjusted with 5M NaOH); Internal Solution: 140 mM KCl; 10 mM MgCl2; 6 mM EGTA; 5 mM HEPES-Na; 5 mM ATP-Mg; 295-305 mOsm; pH 7.25 (adjusted with 1M KOH).
Electrophysiology: Whole cell recordings were performed using PX 7000A (Axon Instruments) with AVIVA's SealChip™ technology. Cells were voltage clamped at a holding potential of −80 mV. The hERG current was then activated by a depolarizing step to −50 mV for 300 ms. This first step at −50 mV was used as a baseline for measuring peak amplitude of the tail current. Next, a voltage step to +20 mV was applied for 5 s to activate the channels. Finally, a step back to −50 mV for 5 s removed activation and the deactivating tail current was recorded.
Test Article Handling and Dilutions: All test articles were prepared from 10 mM DMSO stock solutions provided by Sponsor. Solutions were mixed by sonication for 20 min, followed by vigorous vortexing. Prior to testing, compounds were diluted to test concentrations in glass vials using External Solution. Dilutions were prepared no longer than 20 min prior to use.
Electrophysiology Procedures: After achieving whole cell configuration, cells were monitored for 90 s to assess stability and then washed with External Solution for 66 s. The voltage protocol previously described was then applied to the cells every 12 s throughout the procedure. Only stable cells with recording parameters above threshold (see Quality Control section) were allowed to enter the drug addition procedure. External solution containing 0.1% DMSO (vehicle) was applied to the cells to establish a baseline. […] Test article solutions were added to cells in 4 separate additions. Cells were kept in test solution until effect of the test article reached steady state, to a maximum of 12 min. Next, 1 μM cisapride (positive control) was added. Finally, washout with External Solution was performed until the recovery current reached steady state.
Data Analysis: Data analysis was performed using DataXpress (Axon Instruments), Clampfit (Axon Instruments) and Origin (OriginLab Corporation) software.
A general note: Block of hERG is tested as a sign of cardiac risk.

Data set [2] has as its target T1, 5HT2A. Nature of the data set: Receptor Selection and Amplification (R-SAT) functional assay. The note with it: NIH3T3 cells; Ki from IC50 by Cheng and Prussoff; read-out: 5-HT2a (pKi) (R-SAT) (converted). More on the design: expressed in transfected cells; host or cells: NIH3T3 cells, pSI mammalian expression vector. The source says: Receptor Selection and Amplification (R-SAT) Assays. […] The IC50 determined in the RSAT assay was converted into a Ki value using the method of Cheng and Prussoff, Biochem Pharmacol., 1973 Dec. 1; 22(23):3099-108. pKi is the negative of the log(Ki).

T1 sequence (P28223 whole entry): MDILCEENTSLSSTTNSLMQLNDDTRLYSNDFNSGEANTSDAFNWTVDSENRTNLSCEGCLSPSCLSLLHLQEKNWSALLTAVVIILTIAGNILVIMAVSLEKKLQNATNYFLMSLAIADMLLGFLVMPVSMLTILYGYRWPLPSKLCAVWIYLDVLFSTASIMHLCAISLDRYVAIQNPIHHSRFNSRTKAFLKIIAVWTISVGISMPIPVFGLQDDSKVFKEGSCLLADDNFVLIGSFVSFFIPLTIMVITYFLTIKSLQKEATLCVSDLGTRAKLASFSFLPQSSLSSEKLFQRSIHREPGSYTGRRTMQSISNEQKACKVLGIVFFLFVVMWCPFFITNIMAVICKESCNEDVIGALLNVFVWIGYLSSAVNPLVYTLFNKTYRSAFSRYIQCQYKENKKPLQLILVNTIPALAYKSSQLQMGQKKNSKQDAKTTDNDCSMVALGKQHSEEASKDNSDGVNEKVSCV

Consider `CN1CCC(N(Cc2ccc(F)cc2F)C(=O)NCc2ccc3c(c2)CCC3)CC1` [Example 38], for which, on 5HT2A [1], the IC50 was 3.98 nM. As for `CC(C)Oc1ccc(CNC(=O)N(Cc2ccc(C#N)cc2F)C2CCN(C)CC2)cc1` [Example 43], on 5HT2A [1], the IC50 was 126 nM. Moreover, on hERG channel, testing at 1 µM gave an inhibition of 42%. As for `Cc1cc2cc(CNC(=O)N(Cc3ccc(F)cc3F)C3CCN(C)CC3)ccc2n1C` [Example 25], on 5HT2A [1], the IC50 is 100 nM. Same read-out and setting: for `Cc1n[nH]c2ccc(CNC(=O)N(Cc3ccc(F)cc3F)C3CCN(C)CC3)cc12` [Example 42] the value was 251 nM. Regarding `CN1CCC(N(Cc2ccc(F)cc2F)C(=O)NCc2ccc3c(c2)CCN3C)CC1` [Example 23], the IC50 on 5HT2A [1] is 15.8 nM. For the same compound, the inhibition (in general, the change of the read-out against control, counted positive when it falls) at 1 µM at hERG channel stood at 13%. The matching figures for `Cc1cc2cc(CNC(=O)N(Cc3ccc(F)cc3F)C3CCN(C)CC3)ccc2[nH]1` [Example 36]: 25.1 nM and 29%. On the same counts, the results for `CC(C)Oc1ccc(CNC(=O)N(Cc2ccc([N+](=O)[O-])cc2F)C2CCN(C)CC2)cc1` [Example 44] are 158 nM and 70%.

Take `CN1CCC(N(Cc2ccc(F)cc2F)C(=O)NCc2ccc3c(c2)CCS3(=O)=O)CC1` [Example 37]: the IC50 at 5HT2A [1] is 631 nM. At hERG channel, this compound came in with an inhibition at 1 µM of 8%. On the same counts, the results for `Cc1noc2cc(CNC(=O)N(Cc3ccc(F)cc3F)C3CCN(C)CC3)ccc12` [Example 24] are 126 nM and 10%. Turning to `CN1CCC(N(Cc2ccc(F)cc2F)C(=O)NCc2ccc3c(c2)OC(C)(C)C=C3)CC1` [Example 34], the IC50 on 5HT2A [1] was 316 nM. Turning to `CN1CCC(N(Cc2ccc(F)cc2F)C(=O)NCc2ccc(OCCF)cc2)CC1` [Example 15, 1-[(2,4-difluorophenyl)methyl]-3-{[4-(2-fluoroethoxy)phenyl]methyl}-1-(1-methylpiperidin-4-yl)urea], the Ki at 5HT2A [2] was 3.16 nM. The compound further came in with an inhibition at 1 µM on hERG channel of 19%. For `CN1CCC(N(Cc2ccc(F)cc2F)C(=O)NCc2ccc3cnn(C)c3c2)CC1` [Example 35], the IC50 at 5HT2A [1] was 200 nM. Consider `CC(C)Oc1ccc(CNC(=O)N(Cc2ccc(Cl)cc2F)C2CCN(C)CC2)cc1` [Example 137, 1-[(4-chloro-2-fluorophenyl)methyl]-1-(1-methylpiperidin-4-yl)-3-{[4-(propan-2-yloxy)phenyl]methyl}urea; Trifluoroacetic Acid], for which the Ki on 5HT2A [2] is 3.98 nM. The same compound displayed an inhibition at 1 µM on hERG channel of 37%.

On to `O=C(O)C(F)(F)F.[2H]C([2H])([2H])C(N1CCC(N(Cc2ccc(F)cc2F)C(=O)NCc2ccc(OC(C)C)cc2)CC1)C([2H])([2H])[2H]` [Example 75, 1-[(2,4-difluorophenyl)methyl]-1-{1-[(1,1,1,3,3,3-^2H6)propan-2-yl]piperidin-4-yl}-3-{[4-(propan-2-yloxy)phenyl]methyl}urea; Trifluoroacetic Acid], for which the IC50 at 5HT2A [1] was 3.98 nM. In the case of `Cc1cc(CNC(=O)N(Cc2ccc(F)cc2F)C2CCN(C)CC2)ccc1OC(C)C` [Example 145, 1-[(2,4-difluorophenyl)methyl]-3-{[3-methyl-4-(propan-2-yloxy)phenyl]methyl}-1-(1-methylpiperidin-4-yl)urea; Trifluoroacetic Acid], the Ki at 5HT2A [2] is 1.58 nM. At hERG channel, this compound had an inhibition at 1 µM of 39%.

With `CC(C)Oc1ccc(CNC(=O)N(Cc2ccc(F)cc2Cl)C2CCN(C)CC2)cc1` [Example 61], the Ki on 5HT2A [2] is 15.8 nM. The inhibition at 1 µM against hERG channel stood at 23%.

`CC(=O)Oc1cc(F)ccc1CN(C(=O)NCc1ccc(OCC(C)C)cc1)C1CCN(C)CC1` [Example 92, 5-fluoro-2-{[1-(1-methylpiperidin-4-yl)({[4-(2-methylpropoxy)-phenyl]methyl}carbamoyl)amino]methyl}phenyl acetate; Trifluoroacetic Acid]: at 5HT2A [2], the Ki was 0.316 nM. At hERG channel, this compound returned an inhibition at 1 µM of 45%. On to `CN1CCC(N(Cc2ccc(F)cc2F)C(=O)NCc2ccc3ncccc3c2)CC1` [Example 27], for which the IC50 at 5HT2A [1] was 79.4 nM.

In the case of `CC(C)COc1ccc(CNC(=O)N(Cc2ccc(F)cc2Cl)C2CCN(C)CC2)cc1` [Example 62], at 5HT2A [2], the Ki is 79.4 nM. Further, on hERG channel, testing at 1 µM gave an inhibition of 32%. Regarding `Cc1c[nH]c2ccc(CNC(=O)N(Cc3ccc(F)cc3F)C3CCN(C)CC3)cc12` [Example 21], the IC50 at 5HT2A [1] is 200 nM. `CN1CCC(N(Cc2ccc(F)cc2F)C(=O)NCc2ccc3ncsc3c2)CC1` [Example 39]: the IC50 at 5HT2A [1] was 15.8 nM. For the same compound, at 1 µM the inhibition against hERG channel was 21%.
